The supplement of paper PMC13380429

Tests used:
Settings in all cases: 72 h
HepG2 [1] = test: relative viability EC50 (midpoint between 100% and the lowest measured viability); higher = less toxic
Caco-2 [2] = test: as above
Vero E6 [3] = test: as above
Calu-3 [4] = test: as above
HepG2 [5] = test: cell viability relative to DMSO; higher = less toxic
Caco-2 [6] = test: as above
Vero E6 [7] = test: as above
Calu-3 [8] = test: as above
U2OS [9] = test: as above
HepG2 [10] = test: drug sensitivity score (DSS) for viability; higher = more toxic; extreme values may be limits of the assay
Caco-2 [11] = test: as above
Vero E6 [12] = test: as above
Calu-3 [13] = test: as above
U2OS [14] = test: as above

Row | Compound | relative viability EC50 (HepG2 [1]) [µM] | relative viability EC50 (Caco-2 [2]) [µM] | relative viability EC50 (Vero E6 [3]) [µM] | relative viability EC50 (Calu-3 [4]) [µM] | cell viability (HepG2 [5]; 1 nM) [%] | cell viability (HepG2 [5]; 10 nM) [%] | cell viability (HepG2 [5]; 100 nM) [%] | cell viability (HepG2 [5]; 1000 nM) [%] | cell viability (HepG2 [5]; 10000 nM) [%] | cell viability (Caco-2 [6]; 1 nM) [%] | cell viability (Caco-2 [6]; 10 nM) [%] | cell viability (Caco-2 [6]; 100 nM) [%] | cell viability (Caco-2 [6]; 1000 nM) [%] | cell viability (Caco-2 [6]; 10000 nM) [%] | cell viability (Vero E6 [7]; 1 nM) [%] | cell viability (Vero E6 [7]; 10 nM) [%] | cell viability (Vero E6 [7]; 100 nM) [%] | cell viability (Vero E6 [7]; 1000 nM) [%] | cell viability (Vero E6 [7]; 10000 nM) [%] | cell viability (Calu-3 [8]; 1 nM) [%] | cell viability (Calu-3 [8]; 10 nM) [%] | cell viability (Calu-3 [8]; 100 nM) [%] | cell viability (Calu-3 [8]; 1000 nM) [%] | cell viability (Calu-3 [8]; 10000 nM) [%] | cell viability (U2OS [9]; 1 nM) [%] | cell viability (U2OS [9]; 10 nM) [%] | cell viability (U2OS [9]; 100 nM) [%] | cell viability (U2OS [9]; 1000 nM) [%] | cell viability (U2OS [9]; 10000 nM) [%] | drug sensitivity score (HepG2 [10]) | drug sensitivity score (Caco-2 [11]) | drug sensitivity score (Vero E6 [12]) | drug sensitivity score (Calu-3 [13]) | drug sensitivity score (U2OS [14])
1 | CN(C)CCCC(=O)Nc1ccc(C(=O)Nc2cccc(Nc3ncc(Cl)c(-c4c[nH]c5ccccc45)n3)c2)cc1 [THZ1-R] | 1.22 | > 10 | > 10 | > 10 | 96 | 91.4 | 107 | 65.7 | 9.4 | 92.2 | 98.6 | 94.5 | 100 | 77.9 | 95.6 | 98 | 96.9 | 93.4 | 105 | 97.6 | 103 | 106 | 94.8 | 79.7 | 96.2 | 104 | 97.6 | 102 | 65.1 | 9.7 | 0.7 | 0 | 1.3 | 1.5
2 | CCN(CC)CCOC(=O)C(c1ccccc1)c1ccccc1 [adiphenine] | > 10 | > 10 | > 10 | > 10 | 103 | 109 | 106 | 113 | 99.1 | 105 | 102 | 95.1 | 98.3 | 103 | 111 | 116 | 105 | 107 | 99.2 | 109 | 113 | 97 | 104 | 124 |  |  |  |  |  | 0 | 0 | 0 | 0 | 
3 | O=c1[nH]cnc2c1cnn2[C@@H]1O[C@H](CO)[C@@H](O)[C@H]1O [allopurinol-riboside] |  | > 10 | > 10 | > 10 |  |  |  |  |  | 97.7 | 98 | 111 | 91.8 | 101 | 102 | 100 | 98.2 | 103 | 102 | 102 | 90.7 | 103 | 93.4 | 98.1 |  |  |  |  |  |  | 0 | 0 | 0 | 
4 | COc1cc(N)cn[n+]1-c1ccccc1 [amezinium] |  | > 10 |  | > 10 |  |  |  |  |  | 109 | 108 | 100 | 110 | 97.8 |  |  |  |  |  | 97.8 | 110 | 106 | 89.9 | 96.6 |  |  |  |  |  |  | 0 |  | 0 | 
5 | CC(C)(S)C(=O)N[C@@H](CS)C(=O)O [bucillamine] |  |  |  |  |  |  |  |  |  |  |  |  |  |  |  |  |  |  |  |  |  |  |  |  |  |  |  |  |  | 0 |  | 0 | 0 | 
6 | COc1cc2nccc(Oc3ccc(NC(=O)C4(C(=O)Nc5ccc(F)cc5)CC4)cc3)c2cc1OC [cabozantinib] | 3.02 | 1.47 | 3.07 | 1.75 | 107 | 92.6 | 97.1 | 98.9 | 44.4 | 93 | 97.4 | 96.7 | 82 | 35 | 101 | 98 | 97.2 | 99.3 | 48 | 94.2 | 109 | 100 | 88.1 | 39.2 | 103 | 104 | 99 | 98.3 | 50.1 | 3.1 | 6.3 | 2.8 | 5.3 | 2.8
7 | COc1cc2c(cc1OC)C(=O)C(CC1CCN(Cc3ccccc3)CC1)C2 (stereo unspecified) [donepezil] | > 10 | > 10 | > 10 | > 10 | 114 | 106 | 98.8 | 102 | 91.2 | 103 | 102 | 104 | 91.4 | 96.4 |  |  |  |  |  | 91.9 | 92.4 | 96 | 92 | 94.1 |  |  |  |  |  | 0 | 0 | 0.3 | 0 | 
8 | Cn1c(=O)c2c(ncn2CC2OCCO2)n(C)c1=O [doxofylline] |  |  |  |  |  |  |  |  |  |  |  |  |  |  |  |  |  |  |  |  |  |  |  |  |  |  |  |  |  | 1.3 |  | 0 | 0 | 0
9 | CN1CCc2nc(C(=O)N[C@@H]3C[C@@H](C(=O)N(C)C)CC[C@@H]3NC(=O)C(=O)Nc3ccc(Cl)cn3)sc2C1 [edoxaban] | > 10 | > 10 | > 10 | > 10 | 106 | 94.9 | 106 | 96.4 | 101 | 92.4 | 102 | 94.4 | 101 | 107 | 99.5 | 96 | 94.8 | 92.7 | 104 | 97.6 | 96.4 | 92.8 | 98.3 | 105 |  |  |  |  |  | 0 | 0 | 0 | 0 | 
10 | CCn1cc(C(=O)O)c(=O)c2cc(F)c(N3CCNCC3)nc21 [enoxacin] | > 10 | > 10 | > 10 | > 10 | 105 | 105 | 99.8 | 96 | 97.6 | 105 | 105 | 103 | 99.2 | 99.6 | 101 | 110 | 103 | 103 | 97.6 | 97.7 | 103 | 106 | 105 | 107 |  |  |  |  |  | 0 | 0 | 0 | 0 | 
11 | CC(C)(C)c1ccc(CN(Cc2cccc(OCC(=O)O)c2)S(=O)(=O)c2cccnc2)cc1 [evatanepag] | > 10 | > 10 | > 10 | > 10 | 99.1 | 108 | 91.7 | 94.3 | 93.6 | 98.5 | 97.8 | 101 | 102 | 101 | 108 | 104 | 102 | 97.4 | 93.5 | 110 | 101 | 94.2 | 99.7 | 94.9 |  |  |  |  |  | 0 | 0 | 0 | 0 | 
12 | NS(=O)(=O)c1cc(C(=O)O)c(NCc2ccco2)cc1Cl [furosemide] | > 10 | > 10 | > 10 | > 10 | 121 | 87.5 | 113 | 103 | 120 | 104 | 95.8 | 102 | 106 | 112 | 99.8 | 90.5 | 97.1 | 89.6 | 105 | 98.1 | 95.3 | 103 | 81.5 | 104 |  |  |  |  |  | 0 | 0 | 0 | 0 | 
13 | NCCNC(=O)c1ccc(Cl)cn1 [lazabemide] | > 10 | > 10 | > 10 |  | 99.6 | 96.4 | 113 | 114 | 125 | 98.1 | 95.6 | 101 | 103 | 101 | 95.6 | 99.2 | 90.8 | 91 | 104 |  |  |  |  |  |  |  |  |  |  | 0 | 0 | 0 |  | 
14 | C#C[C@]1(OC(=O)CCCCCC)CC[C@H]2[C@@H]3CCC4=CC(=O)CC[C@@H]4[C@H]3CC[C@@]21C [norethisterone-enanthate] | 2.06 |  | > 10 |  | 95.9 | 95.7 | 96.9 | 88.8 | 19.2 | 99.9 | 102 | 99.8 | 95.8 | 58.5 | 96.6 | 97.1 | 98.8 | 94.5 | 84.2 | 100 | 104 | 90 | 94.1 | 57.1 | 98.5 | 100 | 100 | 98.8 | 68.1 | 6.4 | 2.8 | 0.6 | 3.2 | 1.6
15 | CCCN1CC(NS(=O)(=O)N(CC)CC)CC2Cc3c(O)cccc3CC21 (stereo unspecified) [quinagolide] |  | > 10 |  | > 10 |  |  |  |  |  | 107 | 104 | 106 | 98.9 | 96.3 |  |  |  |  |  | 85.9 | 110 | 95.8 | 97.5 | 86.1 |  |  |  |  |  |  | 0 |  | 0.3 | 
16 | CC(=O)NS(=O)(=O)c1ccc(N)cc1 [sulfacetamide] |  |  |  |  |  |  |  |  |  |  |  |  |  |  |  |  |  |  |  |  |  |  |  |  |  |  |  |  |  | 0 |  | 0 | 0 | 
17 | C=CCN1CCc2nc(N)sc2CC1 [talipexole] |  | > 10 | > 10 |  |  |  |  |  |  | 102 | 104 | 99.2 | 106 | 102 | 103 | 107 | 98.1 | 100 | 100 |  |  |  |  |  |  |  |  |  |  |  | 0 | 0 |  | 
18 | COc1c(O[C@@H]2O[C@H](CO)[C@@H](O)[C@H](O)[C@H]2O)cc2c(c1OC)-c1ccc(SC)c(=O)cc1[C@@H](NC(C)=O)CC2 [thiocolchicoside] | > 10 | > 10 | > 10 | > 10 | 97 | 100 | 91.4 | 97.2 | 90.9 | 96.1 | 96.4 | 82.7 | 102 | 94.5 | 102 | 104 | 99.1 | 106 | 103 | 102 | 93.2 | 98.7 | 102 | 97.8 |  |  |  |  |  | 0 | 0 | 0 | 0 | 
19 | O=C(O)CCCC[C@@H]1CCSS1 [thioctic-acid] | > 10 |  | > 10 |  | 114 | 97.9 | 111 | 106 | 120 |  |  |  |  |  | 101 | 108 | 104 | 86.5 | 90.2 |  |  |  |  |  |  |  |  |  |  | 0 |  | 0.8 |  | 
20 | Cc1cccc(C)c1NC1=NCCCS1 [xylazine] |  | > 10 | > 10 | > 10 |  |  |  |  |  | 105 | 101 | 98.7 | 104 | 92.1 | 113 | 105 | 106 | 102 | 98.5 | 94.4 | 102 | 92.1 | 114 | 90.2 |  |  |  |  |  |  | 0 | 0 | 0 | 
21 | COC(=O)[C@@H]1[C@H]2C[C@H]3c4[nH]c5ccccc5c4CCN3C[C@@H]2CC[C@@H]1O [yohimbine] | > 10 |  | > 10 | > 10 | 110 | 113 | 110 | 94.5 | 87.4 |  |  |  |  |  | 110 | 105 | 101 | 101 | 98.6 | 103 | 100 | 113 | 108 | 96.9 |  |  |  |  |  | 0.3 |  | 0 | 0 | 
